Test systems include COLO 205; Malme-3M; SNB-19; RPMI-8226; NCI-H460; ACHN; K562; TK-10; OVCAR-3; KM12; SK-MEL-5; UO-31; SK-OV-3; SF-539; 786-0; DU-145; HOP-92; HCT-116; CCRF-CEM; HL-60.
Experiment in all cases: NCI-60 cell line screen, 48 h

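Assay format: 96-well plates, 48-hour exposure. GI50 is the concentration that inhibits growth by half.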 Active and inactive are the calls of the source. No stated cut-off is given here; in the data, active = GI50 up to about 1.1 µM and inactive = higher.

Regarding `COc1cc(CNc2c3ccccc3nc3ccccc23)cc(OC)c1OC`, the GI50 is 1.69 µM (inactive) in the assay on COLO 205; 3.71 µM (inactive) in the assay with Malme-3M; 4.63 µM (inactive) in the assay on SNB-19; 2.82 µM (inactive) in the assay on RPMI-8226; 2.57 µM (inactive) in the assay with NCI-H460; 3.07 µM (inactive) with ACHN. The GI50 was 1.32 µM (inactive) in the assay on K562; 5.53 µM (inactive) with TK-10; 5.21 µM (inactive) in the assay on OVCAR-3; 6.21 µM (inactive) with KM12; 2.72 µM (inactive) in the assay on SK-MEL-5; 3.05 µM (inactive) in the assay on UO-31. The GI50 with SK-OV-3 was 5.47 µM (inactive); in the assay on SF-539, 3.95 µM (inactive); in the assay with 786-0, 2.6 µM (inactive); in the assay with DU-145 it was 4.52 µM (inactive); in the assay with HOP-92 it was 3.58 µM (inactive); in the assay with HCT-116 it was 1.44 µM (inactive). Besides, in the assay with CCRF-CEM, the GI50 was 1.57 µM (inactive).
As to `C=C(C)C(=O)O[C@@H]1C[C@@]2(C)O[C@@H]2C[C@H](O)/C(C)=C/[C@H]2OC(=O)C(=C)[C@@H]21`, the GI50 in the assay on COLO 205 is 42 µM (inactive); in the assay on Malme-3M, 24.5 µM (inactive); in the assay on SNB-19, > 100 µM (inactive); with RPMI-8226 it was 40.1 µM (inactive); with NCI-H460 it was > 100 µM (inactive); in the assay with ACHN, 47.2 µM (inactive). Besides, the GI50 in the assay with K562 was 29 µM (inactive); in the assay on TK-10, > 100 µM (inactive); with OVCAR-3, 47.9 µM (inactive); in the assay on KM12, > 100 µM (inactive); in the assay with SK-MEL-5 it was > 100 µM (inactive); with SK-OV-3 it was > 100 µM (inactive). Moreover, the GI50 in the assay on SF-539 was > 100 µM (inactive); with 786-0, 38.9 µM (inactive); in the assay with DU-145, > 100 µM (inactive); with HOP-92 it was 52.8 µM (inactive); with HCT-116, 33.7 µM (inactive); in the assay with CCRF-CEM, 17.3 µM (inactive).
For the compound `O=c1c(NCc2ccccc2)c(C2(c3ccccc3F)SCCCS2)c1=O`, the GI50 in the assay with COLO 205, in the assay on SNB-19, in the assay on NCI-H460, with ACHN, in the assay with TK-10 and in the assay on OVCAR-3 was > 100 µM (inactive) each time. The GI50 was 29.2 µM (inactive) in the assay on HL-60; 46.1 µM (inactive) with KM12; > 100 µM (inactive) with SK-MEL-5; > 100 µM (inactive) in the assay with UO-31; > 100 µM (inactive) in the assay on SK-OV-3; > 100 µM (inactive) with SF-539. The GI50 in the assay on 786-0, in the assay with DU-145, with HOP-92, in the assay on HCT-116 and with CCRF-CEM was > 100 µM (inactive) each time.
On to `COC(=O)c1cc2c3c(cc(NCCN)c2[nH]1)N(C(=O)c1cc2cc(OC)c(OC)c(OC)c2[nH]1)CC3CCl` (stereo not drawn), for which the GI50 is 0.0559 µM (active) in the assay on COLO 205; 0.0377 µM (active) in the assay with Malme-3M; 0.0183 µM (active) in the assay on SNB-19; 0.25 µM (active) with RPMI-8226; 0.0502 µM (active) with NCI-H460; 0.0889 µM (active) with ACHN. The GI50 with K562 was 0.0247 µM (active); in the assay with TK-10 it was 0.366 µM (active); in the assay with OVCAR-3 it was 0.0728 µM (active); in the assay with KM12, 0.205 µM (active); in the assay on SK-MEL-5, 0.0313 µM (active); in the assay with UO-31, 0.192 µM (active). The GI50 in the assay on SK-OV-3 is 0.273 µM (active); in the assay with SF-539, 0.0392 µM (active); in the assay with 786-0, 0.0423 µM (active); with DU-145, 0.0221 µM (active); in the assay with HOP-92, 0.0703 µM (active); in the assay with HCT-116 it was 0.0198 µM (active). In addition, in the assay with CCRF-CEM, the GI50 is 0.0174 µM (active).
For the compound `O=C(CCNC12CC3CC(CC(C3)C1)C2)c1ccccc1`, the GI50 in the assay on COLO 205 was 15 µM (inactive); in the assay on Malme-3M, 18.2 µM (inactive); in the assay with SNB-19, 47 µM (inactive); in the assay with RPMI-8226, 8.13 µM (inactive); in the assay with NCI-H460 it was 19.6 µM (inactive); in the assay on ACHN, 25.9 µM (inactive). For the same compound, the GI50 with K562 was 14.3 µM (inactive); in the assay on TK-10 it was 18.2 µM (inactive); with OVCAR-3, > 10 µM (inactive); in the assay on HL-60 it was 10.3 µM (inactive); in the assay on KM12, 23.6 µM (inactive); in the assay on SK-MEL-5, 17.9 µM (inactive). Also, the GI50 in the assay with UO-31 was 25.1 µM (inactive); in the assay on SF-539, 20.9 µM (inactive); in the assay on 786-0, 16.3 µM (inactive); in the assay with DU-145, 24.8 µM (inactive); in the assay on HOP-92 it was 20.4 µM (inactive); in the assay with HCT-116, 15.2 µM (inactive). In addition, in the assay with CCRF-CEM, the GI50 was 11.6 µM (inactive).
In the case of `Cc1cc(C)c2c(n1)S(=O)(=O)N(CCCN1CCN(c3cccc(Cl)c3)CC1)C(C(=O)c1ccc(Br)cc1)=C2O`, the GI50 was 15.4 µM (inactive) in the assay on COLO 205; 24.7 µM (inactive) in the assay with Malme-3M; 20.9 µM (inactive) in the assay with SNB-19; 8.91 µM (inactive) in the assay on NCI-H460; 27.3 µM (inactive) in the assay with ACHN; 27.8 µM (inactive) with K562. The GI50 is 17.7 µM (inactive) in the assay on TK-10; 16.8 µM (inactive) with OVCAR-3; 14.3 µM (inactive) with HL-60; 24.7 µM (inactive) with KM12; 15.4 µM (inactive) in the assay with SK-MEL-5; 7.1 µM (inactive) in the assay on UO-31. Also, the GI50 in the assay on SK-OV-3 was 29.5 µM (inactive); in the assay on SF-539, 20.7 µM (inactive); in the assay with 786-0, 12.1 µM (inactive); in the assay with DU-145, 26.4 µM (inactive); in the assay with HOP-92 it was 20.7 µM (inactive); in the assay with HCT-116, 19.1 µM (inactive). The GI50 in the assay on CCRF-CEM is 19.9 µM (inactive).
As to `Nc1cc(N2CCCC2)nc(=O)n1Cc1ccccc1`, the GI50 in the assay on COLO 205, with Malme-3M, in the assay with SNB-19, in the assay with RPMI-8226, in the assay with NCI-H460 and in the assay on ACHN was > 100 µM (inactive) throughout. Besides, the GI50 with K562, in the assay with TK-10, in the assay on HL-60, in the assay on KM12, in the assay on SK-MEL-5 and in the assay with SF-539 was > 100 µM (inactive) each time. Besides, the GI50 in the assay on 786-0, in the assay on DU-145, with HOP-92, in the assay on HCT-116 and in the assay on CCRF-CEM was > 100 µM (inactive) each time.
Consider `Cc1csc2nc(-c3cc([N+](=O)[O-])c(Cl)cc3Cl)c(/C=N/N=C(N)N)n12`, for which the GI50 was 17.9 µM (inactive) with COLO 205; 17.8 µM (inactive) in the assay with Malme-3M; 19.8 µM (inactive) in the assay with SNB-19; 16.7 µM (inactive) in the assay on RPMI-8226; 20.2 µM (inactive) in the assay with NCI-H460; 16.6 µM (inactive) in the assay with ACHN. In addition, the GI50 with K562 was 6.53 µM (inactive); in the assay with TK-10 it was 16.8 µM (inactive); in the assay on OVCAR-3, 17 µM (inactive); with HL-60, 13.5 µM (inactive); with KM12, 14.4 µM (inactive); with SK-MEL-5, 16.1 µM (inactive). In addition, the GI50 in the assay on UO-31 was 16 µM (inactive); in the assay with SF-539, 18.7 µM (inactive); with 786-0, 19.5 µM (inactive); with DU-145, 16.7 µM (inactive); in the assay with HOP-92 it was 14.4 µM (inactive); in the assay on HCT-116, 16.7 µM (inactive). In the assay on CCRF-CEM, the GI50 was 27.2 µM (inactive).
`COc1ccc2c(c1)-c1c(c3cc(OC)ccc3n1CCN1CCOCC1)CC2`: the GI50 is 20 µM (inactive) in the assay with COLO 205; 28.2 µM (inactive) in the assay on Malme-3M; 20.5 µM (inactive) with RPMI-8226; 22.8 µM (inactive) with NCI-H460; 29.4 µM (inactive) with ACHN; 13.2 µM (inactive) in the assay on K562. Further, the GI50 with TK-10 is 32.7 µM (inactive); with OVCAR-3, 46.1 µM (inactive); in the assay on KM12 it was 22.6 µM (inactive); in the assay on SK-MEL-5, 25.4 µM (inactive); in the assay with UO-31, 24.5 µM (inactive); in the assay on SK-OV-3 it was > 100 µM (inactive). The GI50 with SF-539 is 28.4 µM (inactive); in the assay on 786-0, 20.2 µM (inactive); with DU-145 it was 37.8 µM (inactive); with HOP-92 it was 24.4 µM (inactive); in the assay with HCT-116 it was 27.2 µM (inactive); with CCRF-CEM, 11.5 µM (inactive).
Regarding `CCOC(=O)c1nc2ccc(C(F)(F)F)cc2nc1Oc1ccc(OC)cc1`, the GI50 is > 100 µM (inactive) in the assay with COLO 205; 62.8 µM (inactive) with Malme-3M; > 100 µM (inactive) with SNB-19; > 100 µM (inactive) with RPMI-8226; > 100 µM (inactive) in the assay with NCI-H460; > 100 µM (inactive) in the assay on ACHN. The GI50 in the assay with K562, in the assay on TK-10, with OVCAR-3, with KM12, with SK-MEL-5 and in the assay on UO-31 was > 100 µM (inactive) each time. Also, the GI50 was > 100 µM (inactive) in the assay on SK-OV-3; > 100 µM (inactive) in the assay with SF-539; > 100 µM (inactive) with 786-0; > 100 µM (inactive) in the assay with DU-145; 82.2 µM (inactive) with HOP-92; > 100 µM (inactive) in the assay on HCT-116. Further, the GI50 in the assay on CCRF-CEM was > 100 µM (inactive).
Take `COC(=O)[C@H](CCSC)NC(=O)c1ccc(CNC(=O)/C(C)=C/c2ccccc2)cc1`: the GI50 is > 100 µM (inactive) with COLO 205; 15.3 µM (inactive) in the assay on Malme-3M; 24.7 µM (inactive) with SNB-19; > 100 µM (inactive) in the assay with RPMI-8226; 26.6 µM (inactive) in the assay on NCI-H460; 44.3 µM (inactive) in the assay on ACHN. The GI50 with K562 is > 100 µM (inactive); with TK-10, > 100 µM (inactive); in the assay on OVCAR-3, 60.8 µM (inactive); with KM12 it was 82.4 µM (inactive); in the assay with SK-MEL-5, 34.8 µM (inactive); in the assay on UO-31, 43.5 µM (inactive). For the same compound, the GI50 is 39.4 µM (inactive) in the assay with SK-OV-3; 26.5 µM (inactive) in the assay with SF-539; 20.8 µM (inactive) with 786-0; 37.9 µM (inactive) in the assay on DU-145; 25.8 µM (inactive) with HOP-92; 50.9 µM (inactive) in the assay with HCT-116. In addition, the GI50 in the assay on CCRF-CEM is > 100 µM (inactive).

(Values after ChEMBL document CHEMBL1201862, “PubChem BioAssay data set” (2004).)
